Source: US20090197975A1, “COMPOSITIONS FORMULATED FOR SOLVENT-REGULATED DRUG RELEASE” (MIV Therapeutics Inc., priority 2005, published 2009)

Assay: Paclitaxel composition droplets immersed in PBS for 72 hours (FIG. 3)
Type: physicochemical
Details: 72 hours in PBS; DENA and DMSO present as solubilizing agents
Excerpt: FIG. 3 is two photographs comparing three drug compositions formulated in accordance with the invention. Each composition comprises the drug paclitaxel formulated with different compositional ratios of solvents, namely a first solvent comprising a mixture of 70% DENA and 30% DMSO and a second solvent comprising 70% castor oil and 30% soybean oil. The left-hand composition comprises 70% of the first solvent and 30% of the second solvent; the middle composition comprises 60% of the first solvent and 40% of the second solvent; and the right-hand composition comprises 50% of the first solvent and 50% of the second solvent.
In the example of FIG. 3, the release profile of a composition 10 comprising the water-insoluble lipophilic drug paclitaxel was investigated. Paclitaxel is a well-known chemotherapy agent. FIG. 3 compares three drug compositions comprising paclitaxel formulated with different compositional ratios of first and second solvents 14, 18. The concentration of paclitaxel is maintained at 20 weight percent in first solvent 14. In this example, first solvent 14 comprises a mixture of 70% DENA and 30% DMSO and second solvent 18 comprises 70% castor oil and 30% soybean oil. […]

CC(=O)O[C@H]1C(=O)[C@@]2(C)[C@H]([C@H](OC(=O)c3ccccc3)[C@]3(O)C[C@H](OC(=O)[C@H](O)[C@@H](NC(=O)c4ccccc4)c4ccccc4)C(C)=C1C3(C)C)[C@]1(OC(C)=O)CO[C@@H]1C[C@@H]2O [paclitaxel]
paclitaxel precipitate visually detected in the PBS: No white precipitate
